Reference: US8394773B2, “Use of an alkyl glycoside or of a mixture of alkyl glycosides having anti-ageing and/or calming properties as active agents in cosmetic compositions, and methods of cosmetic care using said compositions” (LVMH Recherche, priority 2008, dated 2013)

Experiments:
Il-8 = test: Quantification of the release of Il-8 into culture supernatants of HaCaT keratinocytes stimulated with Il-1 beta (ELISA, related to total proteins); type: cell-based, human; conditions: for Inhibitory activity (%) (release of Il-8) / Liberation Il-8 (%) / pg IL8/mg prot: alkyl glycoside alone at 1 μM, 24 hours; for Inhibitory activity (%) (release of Il-8) / Liberation Il-8 (%): HaCaT + Il-1 beta; for Liberation Il-8 (%): control (-) = 100; for pg IL8/mg prot: HaCaT stimulated with Il-1 beta 25 ng/ml; for anti-Il-8 activity, in words: compounds tested alone, 1 μM
Procedure: (§1) The release of the Il-8 and PGE2 markers into cell line culture supernatants of immortalized keratinocytes (HaCaT), stimulated for 24 hours in the presence of oligosaccharides is quantified.
(§2) HaCaTs are cultured to 80% confluence.
(§3) A treatment is carried out over 24 hours with the product to be evaluated with, in the case of Il-8 alone, a parallel stimulation with interleukin-1.
(§4) The culture supernatants containing the markers are collected and stored at −20° C. up to the day of the assay.
(§5) The assay is carried out with the aid of a kit specific for each of the markers.
The assay of human Il-8 by means of the ELISA AbC204/3 kit (Abcys).
(§6) These HaCaTs are inoculated at the rate of 10 000 cells/well (supplemented KSFM culture medium, Gibco) in a 96-well microplate.
(§7) The plate is placed in an incubator (37° C. and 5% CO2) for 24 hours.
(§8) The oligosaccharides, initially in the form of a 1 mM stock solution in DMSO, are exposed to the cells after suitable dilution in culture medium.
In parallel, for Il-8, the cells are stimulated with Il-1 beta at 25 ng/ml.
A column is treated with cholecalciferol (vitamin D3) at 0.39 μg/ml and stimulated with Il-1 beta, as positive control inhibiting the release of Il-8.
A control column is not treated and stimulated with Il-1 beta.
(§9) Each concentration of product, the positive control and the control without treatment, are evaluated on 4 or 6 wells of HaCaT.
(§10) After 24 hours of treatment, the culture supernatants are collected and stored at −20° C.
(§11) The assay is carried out according to the protocol described in each of the kits, by an immunoenzymatic test which makes it possible to assay, by spectrophotometric measurement at 450 nm, the respective quantities of Il-8 and of PGE2 present in the supernatants.
(§12) The absorbance (OD) values obtained for the 2-fold dilution series for IL-8 standard and PGE2 standard (7 concentrations, in duplicate) are plotted on a logarithmic graph.
(§13) The known concentrations of IL-8 and PGE2, expressed in pg/ml, are plotted on the x-axis and the absorbance values on the y-axis, in order to obtain a straight line.
(§14) The absorbance values measured for each sample are in turn plotted on the graph, in order to determine the respective IL-8 and PGE2 concentrations, expressed in pg/ml.
(§15) The assay (in mg/ml) of the total proteins present in the cellular pellets, after treatment or non-treatment of the HaCaTs, makes it possible to relate the assay of IL-8 and of PGE2 to the quantity of proteins in each well of cells, expressed in picograms (pg) of markers per milligram (mg) of proteins.
(§16) The absorbance values for the 6 wells are converted to mg of proteins per well of HaCaT by means of the straight line obtained by the calibration series (quantity of proteins known for an absorbance determined at 570 nm).
(§17) Finally, for each well and each treatment condition, a quantitative assay of the release of Il-8 and of PGE2 is obtained, in pg/ml.
This assay is related to a quantity of proteins, expressed in mg/ml. The final quantitative result for Il-8 is therefore expressed in pg/mg of proteins.
The percentage inhibition of the production of IL-8 is calculated as follows: […]
The test is carried out at a concentration of alkyl glycosides equal to 1 μM, after dilution in the culture medium, the negative control is pure DMSO.

PGE2 = test: Quantification of the release of PGE2 into culture supernatants of HaCaT keratinocytes (immunoenzymatic kit, related to total proteins); type: cell-based; conditions: for Inhibitory activity (%) (release of PGE2) / pg PGE2/mg prot / Liberation PGE2 (%): alkyl glycoside alone at 1 μM, 24 hours, HaCaT; for Liberation PGE2 (%): control (-) = 100
Procedure: PGE2 is an important marker of inflammatory response linked to tissue damage. It is produced by a wide variety of cells including monocytes, macrophages or keratinocytes.
as §1, §2, §3, §4, §5
Assay of PGE2 by means of the Parameter PGE2 kit (R&D system).
as §6, §7, §8
A column is treated with indomethacin as positive control inhibiting the release of PGE2.
as §9, §10, §11, §12, §13, §14, §15, §16, §17
The test is carried out at a concentration of alkyl glycosides equal to 1 μM, after dilution in the culture medium.

SMILES | Inhibitory activity (%) (release of Il-8) (Il-8) | Liberation Il-8 (%) (Il-8) | pg IL8/mg prot (Il-8) [pg/mg prot] | Inhibitory activity (%) (release of PGE2) (PGE2) | pg PGE2/mg prot (PGE2) [pg/mg prot] | Liberation PGE2 (%) (PGE2) | anti-Il-8 activity, in words (Il-8) | anti-Il-8 activity, in words (Il-8; listed as dodecyl maltotrioside) | PGE2 inhibiting activity, in words (PGE2; compounds tested alone, 1 μM)
CCCCCCCCO[C@@H]1O[C@H](CO)[C@@H](O)[C@H](O)[C@H]1O [DP1-8, n-Octyl-beta-D-glucopyranoside, reference compound] | 9.1 | 91.0 | 1121.6 | 0.3 | 312.8 | 99.7 | – | – | –
CCCCCCCCCCCCO[C@@H]1O[C@H](CO)[C@@H](O)[C@H](O)[C@H]1O [DP1-12, n-dodecyl-beta-D-glucopyranoside, reference compound] | 24.6 | 75.4 | 930.3 | 52.2 | 150.0 | 47.8 | – | – | –
CO[C@@H]1O[C@H](CO)[C@@H](O[C@H]2O[C@H](CO)[C@@H](O)[C@H](O)[C@H]2O)[C@H](O)[C@H]1O [DP2-1, methyl beta-D-maltoside] | 59.6 | 40.4 | 497.7 | 58.2 | 131.3 | 41.8 | – | – | –
CCCCCCCCO[C@@H]1O[C@H](CO)[C@@H](O[C@H]2O[C@H](CO)[C@@H](O)[C@H](O)[C@H]2O)[C@H](O)[C@H]1O [DP2-8, octyl beta-D-maltoside] | 69.4 | 30.6 | 377.7 | 37.7 | 195.5 | 62.3 | – | – | –
CCCCCCCCCCCCO[C@@H]1O[C@H](CO)[C@@H](O[C@H]2O[C@H](CO)[C@@H](O)[C@H](O)[C@H]2O)[C@H](O)[C@H]1O [DP2-12, dodecyl beta-D-maltoside] | 82.9 | 17.1 | 211.0 | 49.1 | 159.8 | 50.9 | – | – | –
CO[C@@H]1O[C@H](CO)[C@@H](O[C@H]2O[C@H](CO)[C@@H](O[C@H]3O[C@H](CO)[C@@H](O)[C@H](O)[C@H]3O)[C@H](O)[C@H]2O)[C@H](O)[C@H]1O [DP3-1, methyl beta-D-maltotrioside] | 71.9 | 28.1 | 346.6 | 49.1 | 159.6 | 50.9 | – | – | –
CCCCCCCCCCCCO[C@@H]1O[C@H](CO)[C@@H](O[C@H]2O[C@H](CO)[C@@H](O[C@H]3O[C@H](CO)[C@@H](O)[C@H](O)[C@H]3O)[C@H](O)[C@H]2O)[C@H](O)[C@H]1O [DP3-12, dodecyl beta-D-maltotrioside] | 20.1 | 79.9 | 521.5 | 18.8 | 171.8 | 81.2 | acts on both markers | very small effect on the release of Il-8 | acts on both markers
